In brackets after ≈: the same amount, converted by molar mass.

As usually defined, the solubility is the concentration that dissolves in the medium under given conditions.

Data set [1] has as its system Trypanosoma cruzi. Put plainly: Assay 6 Trypanosoma cruzi intracellular assay (infected H9C2 cells). It counts as cell-based. Conditions: H9c2, in Rattus norvegicus, 72 h, infected H9C2 rat cardiomyocytes, read-out: pEC50 value against Trypanosoma cruzi (converted). The method, then:
Compounds were dispensed into black 384-well assay plates (Greiner) by acoustic dispensing (LabCyte ECHO). For potency determinations, eleven-point, one in three dilution curves were generated, with a top concentration of 50 μM. H9C2 rat cardiomyocytes cells were dispensed in T225 tissue culture flasks and after 4 hours they were infected during 18 hours with T. cruzi trypomastigotes in the same T225 tissue culture flasks at a multiplicity of infection of 1. Next, any remaining free trypomastigotes were washed away with PBS and the infected H9C2 cells were harvested by trypsinisation. The infected H9C2 cells were then plated into 384-well plates containing the compounds to be tested, at 2500 cells per well in DMEM media with 2% FBS, 1% Penicillin/Streptomocin, 2 mM L-Glutamine, 1 mM Na Pyruvate and 25 mM HEPES. After 72 h incubation at 37° C. in presence of 5% CO2, the plates were fixed and stained with 4% formaldehyde and 2 μM Draq5 for 3 hours at room temperature. The plates were imaged on a Perkin Elmer Opera high-content imaging system using a 20× air objective. Images were analysed using the Acapella building blocks system (Perkin Elmer). The image analysis algorithm first identified the H9C2 nuclei followed by demarcation of the cytoplasm and identification of intracellular amastigotes. This algorithm reported mean number of parasites per H9C2 cell, the percentage of infected H9C2 cells and the total number of H9C2 cells.

For data set [2], the system named is Trypanosoma cruzi. Nature of the data set: Assay 2 Trypanosoma cruzi intracellular assay (infected Vero cells). It counts as cell-based. Particulars: 72 h, read-out: pEC50 value against Trypanosoma cruzi (converted). The method, then: Compounds were dispensed into black 384-well assay plates (Corning) by acoustic dispensing (LabCyte ECHO). For potency determinations, ten-point one in three dilution curves were generated, with a top concentration of 50 μM. Vero cells were infected overnight with T. cruzi trypomastigotes in T225 tissue culture flasks at a multiplicity of infection of 5. Next, any remaining free trypomastigotes were washed away with serum free MEM media and the infected Vero cells were harvested by trypsinisation. The infected Vero cells were then plated into 384-well plates containing the compounds to be tested, at 4000 cells per well in MEM media with 1% FCS. After 72 h incubation at 37° C. in presence of 5% CO2, the plates were fixed with 4% formaldehyde for 20 minutes at room temperature and stained with 5 μg/ml Hoechst 33342. The plates were imaged on a Perkin Elmer Operetta high-content imaging system using a 20× objective. Images were analysed using the Columbus system (Perkin Elmer). The image analysis algorithm first identified the Vero nuclei followed by demarcation of the cytoplasm and identification of intracellular amastigotes. This algorithm reported mean number of parasites per Vero cell and total number of Vero cells.

Data set [3] is described as follows: Assay 4 solubility assay, ChemiLuminescent Nitrogen Detection (CLND). The format is physicochemical. Particulars: phosphate buffered saline, pH 7.4, aqueous buffer, kinetic from dmso stock, pH 7.4 PBS, from 10 mM DMSO stock, 1 h at room temperature. The method, then:
A 10 mM DMSO stock solution of the compound was prepared. Solvents and Buffers Organic solvents of HPLC grade were used. Ultra pure water (Milli-Q grade) was used. Buffers were prepared with ultra pure water and filtered using 0.45μ cameo filters. Aqueous Buffer Solution: Phosphate Buffer Saline (PBS) @ pH 7.4 was prepared from Sigma dry powder packs, P-3813. Each one was diluted to 1 liter with deionised water. The pH was checked before the solution was used II. Procedures. • a) DMSO concentration was measured. DMSO blanks and ondansetron and caffeine standards were added to the plate (column 12, A, B, C, & D for the blanks and E, F, G, & H for the standards). Plates were covered with foil. When the UV and CLND detectors baselines appeared to be stable, the CLND was zeroed. • b) Once DMSO concentration measurements were complete, a filtration plate was prepared from each parent plate by diluting 5 μl of the 10 mM DMSO stock solution to […] with pH7.4 PBS. • c) After the plates were prepared, they were covered with a plate lid and left to incubate for 1 h at room temperature. • d) Sample was filtered using MILLIPORE MultiScreen Solubility (MSSLBPC10) Filtration Plates, to NUNC V well plates. The filter plate was removed and the NUNC plate was sealed with a power seal plate seal. • e) HPLC/CLND instruments were set up and left to equilibrate. Mobile phases (MeOH:H2O 1:1, flow rate: 0.2 ml/min, sensitivity z10, Gain High). The samples were run. • f) The assay curve fit was done by linear regression and solubility values were reported in μM.

The test system of the next data set is Leishmania donovani. Nature of the data set: Assay 1 intramacrophage Leishmania donovani assay (potency readout). The format is cell-based. Conditions: amastigotes in PMA-treated THP-1 macrophages, 96 h, average number of amastigotes per cell, minimum threshold 4.3, read-out: pEC50 value against Leishmania donovani (converted). The method, then: The intramacrophage Leishmania assay was performed using a modified version of the method described in De Rycker et al. (Antimicrob Agents Chemother. 2013 July; 57(7):2913-22. Comparison of a high-throughput high-content intracellular Leishmania donovani assay with an axenic amastigote assay. De Rycker M, Hallyburton I, Thomas J, Campbell L, Wyllie S, Joshi D, Cameron S, Gilbert I H, Wyatt P G, Frearson J A, Fairlamb A H, Gray D W.). Procedure: 350 nl of compound was pre-dispensed into 384 well sterile intermediary plates. For single point screening, amphotericin B was added to all wells of column 24 as a positive control (final concentration 2 μM) and DMSO to column 23. For potency determinations, ten-point, one in three dilution curves were created with the highest concentration being 50 μM and on each plate a control curve of amphotericin B was included. Controls were as follows: columns 11 and 12: DMSO, columns 23 and 24: amphotericin B (final concentration 2 μM). To the intermediary plates, 35 μl of THP-1 media was added and plates were shaken for >5 min to ensure complete mixing. THP-1 cells (8,000 per well, 50 μl) were plated into black clear-bottom 384 well plates (Corning) in presence of 20 nM PMA. After 20 min at RT, the plates were incubated at 37° C. under 5% CO2 in a humidified incubator for 75 h. The cells were then washed with […] sterile phosphate buffered saline (PBS) supplemented with 1 mM CaCl2, 0.5 mM MgCl2, 0.1% (w/v) bovine serum albumin (PBS-A) and amastigotes were added to all wells at a multiplicity of infection of 5 (40,000 amastigotes per well). After 40 min at RT, plates were returned to the incubator. Amastigotes were incubated in the presence of THP-1 macrophages for 16 h. Any remaining extracellular amastigotes were subsequently removed with an overflow wash of 1 mL PBS-A per well (wash buffer is being aspirated from the top of the well as it is being dispensed) followed by addition of 25 μl of the compound pre-dilutions using a Fluidx Ipette-pro pipetting station. The final dilution of each compound was 200-fold. Plates were incubated for 96 h and then washed (250 μl PBS-A) and fixed (4% (v/v) formaldehyde-PBS, 30 min, RT). After fixation, the wells were washed with 250 μl PBS, stained (10 μg/mL DAPI, 0.4 μg mL-1 HCS Cellmask Deep Red in PBS+0.1% (v/v) Triton X-100, 30 min, RT) and washed with 250 μl PBS. Finally, PBS+0.05% (v/v) thimerosal was added to the wells, the plates were sealed and imaged on a high-content microscope (GE IN Cell 2000) using a 10× objective. Image analysis was carried out with GE IN Cell Analyzer 1000 Workstation using the “Multi Target Analysis” module. Settings for segmentation were as follows: nuclei: minimum area: 142.384 μm2, sensitivity: 81, method: top-hat; cells: characteristic area: 2500 μm2, sensitivity: 60, method: multiscale top-hat; organelles (amastigotes): granule size 1-3, 3 scales, sensitivity: 90, detection in entire cell. For each well, i) THP-1 cell count (cytotoxicity readout) and ii) average number of amastigotes per cell (potency readout) were calculated, both in terms of pEC50 values.

Data set [4] is described as follows: Assay 5 Leishmania donovani intracellular assay, cytotoxicity against THP-1 cells. It counts as cell-based. Conditions: human, total number of THP-1 cells, minimum threshold 4.3, read-out: cytotoxicity against THP-1 cells, pEC50 value (converted). The method, then:
Compounds were dispensed into black 384-well assay plates (Greiner) by acoustic dispensing (LabCyte ECHO). For potency determinations, eleven-point, one in three dilution curves were generated, with a top concentration of 50 μM. THP-1 human monocytes cells were dispensed in T225 tissue culture flasks and differentiated using 30 nM of PMA, after 24 hours they were infected overnight using Leishmania donovani expressing Green Fluorescent Protein (eGFP) amastigotes in the same T225 tissue culture flasks at a multiplicity of infection of 10. Next, any remaining free amastigotes were washed away with PBS and the infected THP-1 cells were harvested by trypsinisation. The infected cells were then plated into 384-well plates containing the compounds to be tested, at 3000 cells per well in RPMI media with 2% FBS and 25 mM Sodium bicarbonate. After 96 h incubation at 37° C. in presence of 5% CO2, the plates were fixed with 4% formaldehyde for 30 minutes, washed with PBS and stained with 0.1 mg/mL of DAPI for 30 minutes and washed again with PBS. The plates were imaged on a Perkin Elmer Opera high-content imaging system using a 20× air objective with two expositions, one for DAPI stain and other for eGFP. Images were analysed using the Acapella building blocks system (Perkin Elmer). The image analysis algorithm first identified the THP-1 nuclei followed by demarcation of the cytoplasm and identification of intracellular amastigotes. This algorithm reported mean number of parasites per THP-1 cell, the percentage of infected THP-1 cells and the total number of THP-1 cells.

On to `O=C(Nc1ccc(F)c(-c2cn3nc(N4CCCC4)cnc3n2)c1)N1CCCC1` [Example 3, N-(4-fluoro-3-(2-(pyrrolidin-1-yl)imidazo[1,2-b][1,2,4]triazin-6-yl)phenyl)pyrrolidine-1-carboxamide], for which the EC50 is 0.00501 to 0.631 µM in the data set on Trypanosoma cruzi [1] and 0.02 to 0.251 µM with Trypanosoma cruzi [2]. Also, in data set [3], the solubility at 1 h is 10 to 83 µM (≈ 3.95 to 32.8 µg/mL).

On to `O=C(Nc1ccc(F)c(-c2cn3nc(N4CCCCC4)cnc3n2)c1)N1CCCC1` [Example 4, N-(4-fluoro-3-(2-(piperidin-1-yl)imidazo[1,2-b][1,2,4]triazin-6-yl)phenyl)pyrrolidine-1-carboxamide], for which the figures for the EC50 in the data set with Trypanosoma cruzi [1] and in the data set on Trypanosoma cruzi [2] were 0.00501 to 0.631 µM and 0.02 to 0.251 µM, respectively. Moreover, in data set [3], the solubility at 1 h was in the range of 10 to 83 µM (≈ 4.09 to 34 µg/mL).

Consider `Cc1nn(C)cc1S(=O)(=O)Nc1ccc(F)c(-c2cn3nc(N4CCOCC4)cnc3n2)c1` [Example 34, N-(4-fluoro-3-(2-morpholinoimidazo [1,2-b][1,2,4]triazin-6-yl)phenyl)-1,3-dimethyl-1H-pyrazole-4-sulfonamide], for which the figures for the EC50 with Trypanosoma cruzi [1], in the data set with Trypanosoma cruzi [2] and in the data set on Leishmania donovani were 10 to 39.8 µM, 25.1 µM and greater than 50.1 µM, respectively.

Regarding `CN(C)Cc1ccc(-c2cnc3nc(-c4cc(NC(=O)N5CCCC5)ccc4F)cn3n2)cc1` [Example 37, N-(3-(2-(4-((dimethyl-amino)methyl)phenyl)imidazo[1,2-b][1,2,4]triazin-6-yl)-4-fluoro-phenyl)pyrrolidine-1-carboxamide], the EC50 in the data set with Trypanosoma cruzi [1] was 0.00501 to 0.631 µM. Besides, the EC50 at 96 h in data set [4] is 2.51 to 10 µM. Moreover, the solubility at 1 h in data set [3] is 10 to 83 µM (≈ 4.6 to 38.1 µg/mL).

As for `CN(C)Cc1cccc(-c2cnc3nc(-c4cc(NC(=O)N5CCCC5)ccc4F)cn3n2)c1` [Example 41, N-(3-(2-(3-((dimethyl-amino)methyl)phenyl)imidazo[1,2-b][1,2,4]triazin-6-yl)-4-fluorophenyl)pyrrolidine-1-carboxamide], in the data set on Trypanosoma cruzi [1], the EC50 was 0.00501 to 0.631 µM. Moreover, the EC50 at 96 h in data set [4] is 2.51 to 10 µM. Also, the solubility at 1 h in data set [3] was 100 to 416 µM (≈ 46 to 191 µg/mL).

In the case of `CNCc1cccc(-c2cnc3nc(-c4cc(NC(=O)N5CCCC5)ccc4F)cn3n2)c1` [Example 44, N-(4-fluoro-3-(2-(3-((methylamino)methyl)phenyl)imidazo[1,2-b] [1,2,4]triazin-6-yl)phenyl) pyrrolidine-1-carboxamide], the EC50 in the data set on Trypanosoma cruzi [1] was 0.00501 to 0.631 µM. The EC50 at 96 h in data set [4] was 2.51 to 10 µM. The same compound came in with a solubility at 1 h in data set [3] of 100 to 416 µM (≈ 44.6 to 185 µg/mL).

Consider `CC(C)OC(=O)Nc1ccc(F)c(-c2cn3nc(N4CCOCC4)cnc3n2)c1` [Example 48, isopropyl (4-fluoro-3-(2-morpholinoimidazo[1,2-b] [1,2,4]triazin-6-yl)phenyl)carbamate], for which the EC50 in the data set on Trypanosoma cruzi [1] was 0.00501 to 0.631 µM. The EC50 at 96 h in data set [4] is 2.51 to 10 µM. Further, the solubility at 1 h in data set [3] fell in the range of 10 to 83 µM (≈ 4 to 33.2 µg/mL).
